Patent US12064508B2, “Compositions and methods for nasal administration of drugs to brain and for systemic effect” (priority 2017, dated 2024)

System: nasal cavity
Assay: Local safety: histopathology of the nasal cavity
Conditions: intranasal 15 μl/rat twice a day for one week
Experimental: The effect of phospholipid magnesome on the nasal cavity was evaluated in rats.
The animals received the treatments twice a day for one week. […] Sections of the nasal cavity were cut serially at 7 μm thickness and stained with Hematoxylin & Eosin. […] Local toxicity was assessed by evaluating the histopathological alterations in different regions of the nasal cavity (cartilage and turbinate bone, lamina propria and submucosa, mucosal epithelium and lumen).

Compound: CCCCCCCCCCCCOS(=O)(=O)[O-].[Na+] [SLS, Sodium lauryl sulfate]
- histopathological findings in the nasal cavity: minimal proteinaceous material in the lumen and focal aggregations of neutrophils
